The values below come from patent publication US20130252930A1 (BIOMARIN PHARMACEUTICAL INC., priority 2010, published 2013).

This test addresses T1, CYP17 (human testicular microsome) (Homo sapiens, UniProt P05093).
T1 construct: using microsomal fraction from human testis (Celsis Cat #S00110) as the enzyme source; tissue Celsis S00110; host or cells: human testis microsomal fraction
T1 sequence (P05093 1-508): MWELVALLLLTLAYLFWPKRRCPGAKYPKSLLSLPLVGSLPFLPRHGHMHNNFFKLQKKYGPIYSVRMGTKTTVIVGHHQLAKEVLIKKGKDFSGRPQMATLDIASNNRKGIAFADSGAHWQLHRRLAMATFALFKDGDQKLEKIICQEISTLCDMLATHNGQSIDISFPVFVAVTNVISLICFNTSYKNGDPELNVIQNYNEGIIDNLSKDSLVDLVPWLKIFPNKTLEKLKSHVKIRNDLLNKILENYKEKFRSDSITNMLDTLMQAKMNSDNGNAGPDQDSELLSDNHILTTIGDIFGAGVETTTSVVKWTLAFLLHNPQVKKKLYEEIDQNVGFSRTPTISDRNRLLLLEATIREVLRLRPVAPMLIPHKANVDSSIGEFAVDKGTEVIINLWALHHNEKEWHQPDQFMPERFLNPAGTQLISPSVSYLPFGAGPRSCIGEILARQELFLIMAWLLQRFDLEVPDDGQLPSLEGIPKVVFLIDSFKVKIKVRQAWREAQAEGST
Briefly: CYP17 enzymatic assay (% inhibition at 1 nM) (Biological Example 12). The test is classed as biochemical.

Setting [1] is: compound at 1 nM, read-out: CYP17 enzymatic assay % inhibition at 1 nM (Biological Example No. 12).
[2] abbreviates: test compound at 1 nM, read-out: CYP17 enzymatic assay percent inhibition at 1 nM (Biological Example No. 12).
[3] abbreviates: compound at 1 nM, read-out: Biological Example No. 12: CYP17 enzymatic assay % inhibition at 1 nM.

Each structure is given as a SMILES string. Read-outs that look alike come from different tables or passages of the source.

By inhibition is commonly meant the share of the control response that was lost under treatment. Turning to `CC(=O)N(C)C1CC[C@@]2(C)C(CCC3C2CC[C@]2(C)C(c4cccnc4)=CCC32)C1` (stereo partly drawn) [Compound 213, N-((10S,13S)-10,13-dimethyl-17-(pyridin-3-yl)-2,3,4,5,6,7,8,9,10,11,12,13,14,15-tetradecahydro-1H-cyclopenta[a]phenanthren-3-yl)-N-methylacetamide], the inhibition at 0.001 µM under setting [1] lay in the range of 10 to 50%.
The same measure, in the same setting: for `C[C@]12CC[C@H](O)CC1CCC1C2CC[C@]2(C)C(c3cccnc3)CCC12` (stereo partly drawn) [Compound 473, (3S,10S,13S)-10,13-dimethyl-17-(pyridin-3-yl)hexadecahydro-1H-cyclopenta[a]phenanthren-3-ol] the value was under 10%.
Take `C[C@]12CC(F)(F)CC1CCC1C2CC[C@]2(C)C(c3cccnc3)=CCC12` (stereo partly drawn) [Compound 407, 3-((8aS,10aS)-7,7-difluoro-8a,10a-dimethyl-3,3a,3b,4,5,5a,6,7,8,8a,8b,9,10,10a-tetradecahydrodicyclopenta[a,f]naphthalen-1-yl)pyridine]: the inhibition at 0.001 µM under setting [2] is 10 to 50%.
For the compound `C[C@]12CC[C@@](O)(C3CC3)CC1CC[C@@H]1[C@@H]2CC[C@]2(C)C(c3cccnc3)=CC[C@@H]12` (stereo partly drawn) [Compound 252, (3S,10S,13S)-3-cyclopropyl-10,13-dimethyl-17-(pyridin-3-yl)-2,3,4,5,6,7,8,9,10,11,12,13,14,15-tetradecahydro-1H-cyclopenta[a]phenanthren-3-ol], the inhibition at 0.001 µM under setting [1] was in the range of 10 to 50%.
Turning to `CNC1CC[C@@]2(C)C(CC[C@@H]3[C@@H]2CC[C@]2(C)C(c4cccnc4)=CC[C@@H]32)C1` (stereo partly drawn) [Compound 211, (10S,13S)-N,10,13-trimethyl-17-(pyridin-3-yl)-2,3,4,5,6,7,8,9,10,11,12,13,14,15-tetradecahydro-1H-cyclopenta[a]phenanthren-3-amine], the inhibition at 0.001 µM under setting [1] was 10 to 50%.
Consider `C[C@]1(O)CC[C@@]2(C)C(=CCC3C2CC[C@]2(C)C(c4cccnc4)=CCC32)C1` (stereo partly drawn) [Compound 268, (3S,10R,13S)-3,10,13-trimethyl-17-(pyridin-3-yl)-2,3,4,7,8,9,10,11,12,13,14,15-dodecahydro-1H-cyclopenta[a]phenanthren-3-ol], for which the inhibition at 0.001 µM under setting [2] is over 50%.
Turning to `CCC(=O)O[C@H]1CC[C@@]2(C)C(=CCC3C4=CC=C(c5cccnc5)[C@@]4(C)CCC32)C1` (stereo partly drawn) [Compound 193, (3S,10R,13S)-10,13-dimethyl-17-(pyridin-3-yl)-2,3,4,7,8,9,10,11,12,13-decahydro-1H-cyclopenta[a]phenanthren-3-yl propionate], the inhibition at 0.001 µM under setting [2] was in the range of 10 to 50%.
In the case of `C[C@]12CCC3(CCC(=O)O3)CC1CCC1C2CC[C@]2(C)C(c3cccnc3)=CCC12` (stereo partly drawn) [Compound 477, (10S,13S)-10,13-dimethyl-17-(pyridin-3-yl)-1,2,4,5,6,7,8,9,10,11,12,13,14,15-tetradecahydro-3′H-spiro[cyclopenta[a]phenanthrene-3,2′-furan]-5′(4′H)-one], the inhibition at 0.001 µM under setting [3] is under 10%.
On to `CCc1ccncc1C1=CC=C2C3CCC4C[C@@H](OC(C)=O)CC[C@]4(C)C3CC[C@]12C` (stereo partly drawn) [Compound 487, (3S,10S,13S)-17-(4-ethylpyridin-3-yl)-10,13-dimethyl-2,3,4,5,6,7,8,9,10,11,12,13-dodecahydro-1H-cyclopenta[a]phenanthren-3-yl acetate], for which, under setting [2], the inhibition at 0.001 µM lay within 10 to 50%.
Take `C[C@H]1C2CCC3C(CC[C@]4(C)C(c5cncc(C(F)F)c5)=CCC34)[C@@]2(C)CC[C@@H]1O` (stereo partly drawn) [Compound 307, (3S,4S,10R,13S)-17-(5-(difluoromethyl)pyridin-3-yl)-4,10,13-trimethyl-2,3,4,5,6,7,8,9,10,11,12,13,14,15-tetradecahydro-1H-cyclopenta[a]phenanthren-3-ol]: under setting [3], the inhibition at 0.001 µM was 10 to 50%.
Turning to `CC1CC2C(CC[C@]3(C)C(c4cccnc4)=CCC23)[C@@]2(C)CC[C@](C)(O)CC12` (stereo partly drawn) [Compound 425, (3S,10S,13S)-3,6,10,13-tetramethyl-17-(pyridin-3-yl)-2,3,4,5,6,7,8,9,10,11,12,13,14,15-tetradecahydro-1H-cyclopenta[a]phenanthren-3-ol], the inhibition at 0.001 µM under setting [3] fell in the range of 10 to 50%.
For the compound `CCNC(=O)NC1CC[C@@]2(C)C(CCC3C2CC[C@]2(C)C(c4cccnc4)=CCC32)C1C` (stereo partly drawn) [Compound 414, 1-ethyl-3-((10R,13S)-4,10,13-trimethyl-17-(pyridin-3-yl)-2,3,4,5,6,7,8,9,10,11,12,13,14,15-tetradecahydro-1H-cyclopenta[a]phenanthren-3-yl)urea], the inhibition at 0.001 µM under setting [3] was under 10%.
Still for that read-out and setting: for `C[C@]12CC[C@H](O)CC1=CCC1C2CC[C@]2(C)C(c3cncc(C#N)c3)=CCC12` (stereo partly drawn) [Compound 275, 5-((3S,10R,13S)-3-hydroxy-10,13-dimethyl-2,3,4,7,8,9,10,11,12,13,14,15-dodecahydro-1H-cyclopenta[a]phenanthren-17-yl)nicotinonitrile] the value was 10 to 50%.
Turning to `C[C@]12CC[C@@H](NC(=O)C(F)(F)F)CC1CCC1C2CC[C@]2(C)C(c3cccnc3)=CCC12` (stereo partly drawn) [Compound 217, N-((3R,10S,13S)-10,13-dimethyl-17-(pyridin-3-yl)-2,3,4,5,6,7,8,9,10,11,12,13,14,15-tetradecahydro-1H-cyclopenta[a]phenanthren-3-yl)-2,2,2-trifluoroacetamide], the inhibition at 0.001 µM under setting [1] is 10 to 50%.
For the compound `C[C@]12CC[C@@H](NC(=O)c3nccs3)CC1=CC[C@@H]1[C@@H]2CC[C@]2(C)C(c3cccnc3)=CC[C@@H]12` [Compound 229, N-((3R,10R,13S)-10,13-dimethyl-17-(pyridin-3-yl)-2,3,4,7,8,9,10,11,12,13,14,15-dodecahydro-1H-cyclopenta[a]phenanthren-3-yl)thiazole-2-carboxamide], under setting [1], the inhibition at 0.001 µM was 10 to 50%.
As to `COC1CC[C@@]2(C)C(=CCC3C2CC[C@]2(C)C(c4cccnc4)=CCC32)C1` (stereo partly drawn) [Compound 453, 3-((10R,13S)-3-methoxy-10,13-dimethyl-2,3,4,7,8,9,10,11,12,13,14,15-dodecahydro-1H-cyclopenta[a]phenanthren-17-yl)pyridine], the inhibition at 0.001 µM under setting [1] is under 10%.
As to `Cc1ccncc1C1=CC=C2C3CCC4C[C@@H](O)CC[C@]4(C)C3CC[C@]12C` (stereo partly drawn) [Compound 485, (3S,10S,13S)-10,13-dimethyl-17-(4-methylpyridin-3-yl)-2,3,4,5,6,7,8,9,10,11,12,13-dodecahydro-1H-cyclopenta[a]phenanthren-3-ol], the inhibition at 0.001 µM under setting [2] was 10 to 50%.
For `C[C@@]1(O)CC[C@@]2(C)C(CCC3C4=CC=C(c5cccnc5)[C@@]4(C)CCC32)C1` (stereo partly drawn) [Compound 260, (3R,10S,13S)-3,10,13-trimethyl-17-(pyridin-3-yl)-2,3,4,5,6,7,8,9,10,11,12,13-dodecahydro-1H-cyclopenta[a]phenanthren-3-ol], under setting [1], the inhibition at 0.001 µM is under 10%.
For the compound `C[C@H]1C2CCC3C(CC[C@]4(C)C(c5cncc(C(F)F)c5)=CCC34)[C@@]2(C)CC[C@H]1O` (stereo partly drawn) [Compound 308, (3R,4S,10R,13S)-17-(5-(difluoromethyl)pyridin-3-yl)-4,10,13-trimethyl-2,3,4,5,6,7,8,9,10,11,12,13,14,15-tetradecahydro-1H-cyclopenta[a]phenanthren-3-ol], the inhibition at 0.001 µM under setting [3] was under 10%.
Regarding `C[C@]12CC(O)CC1CCC1C2CC[C@]2(C)C(c3cncc(Cl)c3)=CCC12` (stereo partly drawn) [Compound 397, (3aS,5aS)-6-(5-chloropyridin-3-yl)-3a,5a-dimethyl-1,2,3,3a,3b,4,5,5a,8,8a,8b,9,10,10a-tetradecahydrodicyclopenta[a,f]naphthalen-2-ol], the inhibition at 0.001 µM under setting [3] fell in the range of 10 to 50%.
`CCc1ccncc1C1=CC=C2C3CCC4C[C@@H](O)CC[C@]4(C)C3CC[C@]12C` (stereo partly drawn) [Compound 465, (3S,10S,13S)-17-(4-ethylpyridin-3-yl)-10,13-dimethyl-2,3,4,5,6,7,8,9,10,11,12,13-dodecahydro-1H-cyclopenta[a]phenanthren-3-ol]: under setting [1], the inhibition at 0.001 µM was under 10%.
On to `CC(=O)Nc1cncc(C2=CCC3C4CC=C5C[C@@H](O)CC[C@]5(C)C4CC[C@]23C)c1` (stereo partly drawn) [Compound 281, N-(5-((3S,10R,13S)-3-hydroxy-10,13-dimethyl-2,3,4,7,8,9,10,11,12,13,14,15-dodecahydro-1H-cyclopenta[a]phenanthren-17-yl)pyridin-3-yl)acetamide], for which the inhibition at 0.001 µM under setting [2] was under 10%.
Consider `C[C@]12CC[C@H]3[C@@H](CC(=O)C45CC4CC[C@]35C)C1=CC=C2c1cccnc1` (stereo partly drawn) [Compound 250, (3aR,5aS)-3a,5a-dimethyl-6-(pyridin-3-yl)-1a,2,3,3a,3b,4,5,5a,8b,9-decahydrocyclopenta[a]cyclopropa[2,3]cyclopenta[1,2-f]naphthalen-10(1H)-one], for which the inhibition at 0.001 µM under setting [1] is over 50%.
With `C#C[C@@]1(O)CC[C@@]2(C)C(CCC3C2CC[C@]2(C)C(c4cccnc4)=CCC32)C1` (stereo partly drawn) [Compound 257, (3R,10S,13S)-3-ethynyl-10,13-dimethyl-17-(pyridin-3-yl)-2,3,4,5,6,7,8,9,10,11,12,13,14,15-tetradecahydro-1H-cyclopenta[a]phenanthren-3-ol], the inhibition at 0.001 µM under setting [1] lay within 10 to 50%.
As for `CC(=O)NC1CC[C@@]2(C)C(CCC3C2CC[C@]2(C)C(c4cccnc4)=CCC32)C1C` (stereo partly drawn) [Compound 413, N-((10R,13S)-4,10,13-trimethyl-17-(pyridin-3-yl)-2,3,4,5,6,7,8,9,10,11,12,13,14,15-tetradecahydro-1H-cyclopenta[a]phenanthren-3-yl)acetamide], under setting [3], the inhibition at 0.001 µM was under 10%.
